Assay results as given in patent US20110230478A1 (Bayer ScienceCrop AG, priority 2008, published 2011).
Like-named read-outs stand apart in the source and are kept apart here.

Experiment: logP by HPLC on reversed-phase columns (C 18), EEC Directive 79/831 Annex V.A8
Format: physicochemical
Conditions: for logP [b]: LC-MS, pH 2.7, 0.1% aqueous formic acid and acetonitrile
[1] = method marker [b] (compound 257: pH2.7)
[2] = reversed-phase HPLC column (C 18), pH 2.3, pH 2.3, 0.1% aqueous phosphoric acid and acetonitrile, read-out: logP [a]
[3] = pH 2.3, 0.1% aqueous phosphoric acid and acetonitrile, read-out: logP [a]
[4] = pH 2.3, 0.1% aqueous phosphoric acid and acetonitrile

COc1cc(Nc2ncc(Cl)c(NC3CCCCC3)n2)cc(OC)c1 [Example 260]
logP [1]: 2.77[b]

COc1cc(Nc2ncc(Cl)c(NC3CCCCC3)n2)cc(OC)c1OC [Example 261]
logP [1]: 2.26[b]

CC(=O)c1cccc(Nc2ncc(Cl)c(NC3CCCCC3)n2)c1 [Example 262]
logP (method marker [a]): 2.53[a]

CN(C)S(=O)(=O)c1ccc(Nc2ncc(Cl)c(NC3CCCCC3)n2)cc1 [Example 263]
logP [1]: 3.18[b]

CC(C)(C)OC(=O)N1CCN(c2ccc(Nc3ncc(Cl)c(NC4CCCCC4)n3)cc2)CC1 [Example 264]
logP [1]: 2.95[b]

CCN(CC)c1ccc(Nc2ncc(Cl)c(NC3CCCCC3)n2)cc1 [Example 265]
logP (method marker [a]): 1.69[a]

CC(=O)c1ccc(Nc2ncc(Cl)c(NC3CCCCC3)n2)cc1 [Example 266]
logP (method marker [a]): 2.77[a]

CS(=O)(=O)c1ccc(Nc2ncc(Cl)c(NC3CCCCC3)n2)cc1 [Example 267]
logP (method marker [a]): 2.54[a]

CCN(c1nc(Nc2ccccc2)ncc1Cl)C(C)C [Example 269]
logP [1]: 3[b]

CC(C)CN(C)c1nc(Nc2ccccc2)ncc1Cl [Example 270]
logP [1]: 3[b]

C=CCN(C)c1nc(Nc2ccccc2)ncc1Cl [Example 271]
logP [1]: 2.66[b]
logP (method marker [c]): 4.03[c];

CCCN(C)c1nc(Nc2ccccc2)ncc1Cl [Example 272]
logP [1]: 2.55[b]
logP (method marker [c]): 4.35[c];

CC(C)(C)CNc1nc(Nc2ccccc2)ncc1Cl [Example 273]
logP [1]: 2.48[b]

CCCC(C)Nc1nc(Nc2ccccc2)ncc1Cl (stereo not drawn) [Example 274]
logP [1]: 2.41[b]

CCC(CC)Nc1nc(Nc2ccccc2)ncc1Cl [Example 275]
logP [1]: 2.34[b]

CCC(C)CNc1nc(Nc2ccccc2)ncc1Cl (stereo not drawn) [Example 276]
logP [1]: 2.37[b]

CC(C)CCNc1nc(Nc2ccccc2)ncc1Cl [Example 277]
logP [1]: 2.37[b]

CCCCCNc1nc(Nc2ccccc2)ncc1Cl [Example 278]
logP [1]: 2.41[b]

CC(C)CNc1nc(Nc2ccccc2)ncc1Cl [Example 279]
logP [1]: 2.02[b]

CCCNc1nc(Nc2ccccc2)ncc1Cl [Example 280]
logP [1]: 1.69[b]

CC(C)Nc1nc(Nc2cccc(C(F)F)c2)ncc1Cl [Example 281]
logP [1]: 2.4[b]

CCCCN(C)c1nc(Nc2cccc(SC)c2)ncc1Cl [Example 282]
logP [1]: 3.9[b]

CSc1cccc(Nc2ncc(Cl)c(NCC(C)C)n2)c1 [Example 283]
logP [1]: 2.69[b]

CCCNc1nc(Nc2cccc(SC)c2)ncc1Cl [Example 284]
logP [1]: 2.3[b]
logP (method marker [c]): 3.87[c];

OCCNc1nc(Nc2ccccc2)ncc1Cl [Example 285]
logP [1]: 0.7[b]
logP (method marker [c]): 1.83[c];

C=CCNc1nc(Nc2ccccc2)ncc1Cl [Example 286]
logP [1]: 1.64[b]
logP (method marker [c]): 3.1[c];

C[Si](C)(C)CNc1nc(Nc2ccccc2)ncc1Cl [Example 287]
logP [1]: 2.14[b]

C=C(C)CNc1nc(Nc2ccccc2)ncc1Cl [Example 288]
logP [1]: 2.62[b]

CC(C)=CCNc1nc(Nc2ccccc2)ncc1Cl [Example 289]
logP [1]: 2.17[b]

CCC(=O)N(C)c1cccc(Nc2ncc(Cl)c(NC(C)C)n2)c1 [Example 290]
logP [1]: 1.76[b]
logP (method marker [c]): 2.89[c];

CC(Nc1nc(Nc2ccccc2)ncc1Cl)[Si](C)(C)C (stereo not drawn) [Example 291]
logP [1]: 2.66[b]

CNc1cccc(Nc2ncc(Cl)c(NC(C)C)n2)c1 [Example 292]
logP [1]: 1.32[b]

CSCCNc1nc(Nc2ccccc2)ncc1Cl [Example 293]
logP [1]: 1.75[b]

C=CCCNc1nc(Nc2ccccc2)ncc1Cl [Example 294]
logP [1]: 1.87[b]

COC(C)C(C)Nc1nc(Nc2ccccc2)ncc1Cl (stereo not drawn) [Example 295]
logP [1]: 2.04[b]
logP (method marker [c]): 3.64[c];

CCC(C)Nc1nc(Nc2ccccc2)ncc1Cl (stereo not drawn) [Example 296]
logP [1]: 2.05[b]

Cc1cnc(Nc2ccccc2)nc1NC(C)(C)C [Example 297]
logP [1]: 1.48[b]

CC(C)Nc1nc(Nc2cccc(Cn3cccn3)c2)ncc1Cl [Example 298]
logP [1]: 1.7[b]

COCC(C)Nc1nc(Cl)ncc1Cl (stereo not drawn) [Example V-1, 2,5-Dichloro-N-(3-methoxypropan-2-yl)pyrimidine-4-amine]
chromatographic logP (pH 2.3, logP [a]): 2.1

COCC(C)Nc1nc(Cl)ncc1Br (stereo not drawn) [Example V-2, 5-bromo-2-chloro-N-(3-methoxypropan-2-yl)pyrimidine-4-amine]
chromatographic logP (pH 2.3, logP [a]): 2.26

COCCNc1nc(Cl)ncc1Cl [Example V-3, 2,5-dichloro-N-(2-methoxyethyl)pyrimidine-4-amine]
chromatographic logP [2]: 1.65

CCC(CO)Nc1nc(Cl)ncc1Cl (stereo not drawn) [Example V-4, 2,5-dichloro-N-(1-hydroxybutan-2-yl)pyrimidine-4-amine]
chromatographic logP [2]: 1.65

OCCNc1nc(Cl)ncc1Cl [Example V-5, 2,5-dichloro-N-(2-hydroxyethyl)pyrimidine-4-amine]
chromatographic logP [2]: 0.97

CSCC(C)Nc1nc(Cl)ncc1Cl (stereo not drawn) [Example V-6, 2,5-dichloro-N-[1-(methylsulphanyl)propan-2-yl]pyrimidine-4-amine]
chromatographic logP [2]: 2.73

CSCC(C)(C)Nc1nc(Cl)ncc1Cl [Example V-7, 2,5-dichloro-N-[2-methyl-1-(methylsulphanyl)propan-2-yl]pyrimidine-4-amine]
chromatographic logP (pH 2.3, logP [a]): 3.47

N#CCNc1nc(Cl)ncc1Cl [Example V-8, [(2,5-dichloropyrimidin-4-yl)amino]acetonitrile]
chromatographic logP (pH 2.3, logP [a]): 1.27

CC(C)Nc1nc(Cl)ncc1Cl [Example V-9, 2,5-dichloro-N-(propan-2-yl)pyrimidine-4-amine]
chromatographic logP (pH 2.3, logP [a]): 2.46

CC(C)Nc1nc(Cl)ncc1Br [Example V-10, 5-bromo-2-chloro-N-(propan-2-yl)pyrimidine-4-amine]
chromatographic logP [2]: 2.62

CC(C)N(C)c1nc(Cl)ncc1Cl [Example V-11, 2,5-dichloro-N-methyl-N-(propan-2-yl)pyrimidine-4-amine]
chromatographic logP (pH 2.3, logP [a]): 3.16

Clc1ncc(Cl)c(NC2CCCC2)n1 [Example V-12, 2,5-dichloro-N-(cyclopentyl)pyrimidine-4-amine]
chromatographic logP (pH 2.3, logP [a]): 3.16

C=CCNc1nc(Cl)ncc1Cl [Example V-13, 2,5-dichloro-N-(prop-2-en-1-yl)pyrimidine-4-amine]
chromatographic logP (pH 2.3, logP [a]): 2.12

CCC(C)Nc1nc(Cl)ncc1Cl (stereo not drawn) [Example V-14, 2,5-dichloro-N-(butan-2-yl)pyrimidine-4-amine]
chromatographic logP (pH 2.3, logP [a]): 2.94

CCC(C)N(C)c1nc(Cl)ncc1Cl (stereo not drawn) [Example V-15, N-(butan-2-yl)-2,5-dichloro-N-methylpyrimidine-4-amine]
chromatographic logP [2]: 3.62

CCCCNc1nc(Cl)ncc1Cl [Example V-16, N-(butan-1-yl)-2,5-dichloropyrimidine-4-amine]
chromatographic logP [2]: 2.91

CC(C)(C)Nc1nc(Cl)ncc1Cl [Example V-17, N-t-butyl-2,5-dichloropyrimidine-4-amine]
chromatographic logP [2]: 3.22

Clc1ncc(Cl)c(NC2CCCCC2)n1 [Example V-18, 2,5-dichloro-N-cyclohexylpyrimidine-4-amine]
chromatographic logP [2]: 3.47

CCN(C)c1nc(Cl)ncc1Cl [Example V-19, 2,5-dichloro-N-ethyl-N-methylpyrimidine-4-amine]
chromatographic logP (pH 2.3, logP [a]): 2.68

CCNc1nc(Cl)ncc1Cl [Example V-20, 2,5-dichloro-N-ethylpyrimidine-4-amine]
chromatographic logP (pH 2.3, logP [a]): 1.93

CCCNc1nc(Cl)ncc1Cl [Example V-21, 2,5-dichloro-N-propylpyrimidine-4-amine]
chromatographic logP [2]: 2.75

CC(C)CCNc1nc(Cl)ncc1Cl [Example V-22, 2,5-dichloro-N-(3-methylbutyl)pyrimidine-4-amine]
chromatographic logP [2]: 3.45

CCC(CC)Nc1nc(Cl)ncc1Cl [Example V-23]
chromatographic logP [3]: 3.39

CCC(C)CNc1nc(Cl)ncc1Cl (stereo not drawn) [Example V-24, 2,5-dichloro-N-(2-methylbutyl)pyrimidine-4-amine]
chromatographic logP [2]: 3.42

CCCN(C)c1nc(Cl)ncc1Cl [Example V-25, 2,5-dichloro-N-methyl-N-propylpyrimidine-4-amine]
chromatographic logP [2]: 3.31

CC(C)CN(C)c1nc(Cl)ncc1Cl [Example V-26, 2,5-dichloro-N-methyl-N-(2-methylpropyl)pyrimidine-4-amine]
chromatographic logP [2]: 3.78

CCCC(C)Nc1nc(Cl)ncc1Cl (stereo not drawn) [Example V-27, 2,5-dichloro-N-(pent-2-yl)pyrimidine-4-amine]
chromatographic logP [2]: 3.47

CCCCN(C)c1nc(Cl)ncc1Cl [Example V-28]
chromatographic logP [3]: 3.89

CC(C)CNc1nc(Cl)ncc1Cl [Example V-29, 2,5-dichloro-N-(2-methylpropyl)pyrimidine-4-amine]
chromatographic logP [2]: 2.93

CCN(c1nc(Cl)ncc1Cl)C(C)C [Example V-30, 2,5-dichloro-N-ethyl-N-isopropylpyrimidine-4-amine]
chromatographic logP [2]: 3.8

CCCCCNc1nc(Cl)ncc1Cl [Example V-31, 2,5-dichloro-N-(pentyl)pyrimidine-4-amine]
chromatographic logP [2]: 3.51

CC(C)(C)CNc1nc(Cl)ncc1Cl [Example V-32, 2,5-dichloro-N-(2,2-dimethylpropyl)pyrimidine-4-amine]
chromatographic logP [2]: 3.44

C=CCN(C)c1nc(Cl)ncc1Cl [Example V-33, 2,5-dichloro-N-methyl-N-(prop-2-en-1-yl)pyrimidine-4-amine]
chromatographic logP [2]: 2.98

COCC(C)Nc1nc(Nc2ccc(OC)nc2)ncc1Br (stereo not drawn) [II-1]
logP [b]: 1.52[b]
logP [a] [4]: 1.53[a];

COCC(C)Nc1nc(Nc2ccc(OC)nc2)ncc1Cl (stereo not drawn) [II-2]
logP [b]: 1.39[b]

COCC(C)Nc1nc(Nc2ccc(NC3CC3)nc2)ncc1Cl (stereo not drawn) [II-3]
logP [b]: 1.17[b]

COCC(C)Nc1nc(Nc2ccc(O)nc2)ncc1Br (stereo not drawn) [II-4]
logP [a] [4]: 0.58[a]

CCN(C)S(=O)(=O)Cc1cccc([N+](=O)[O-])c1 [IV-1, N-Ethyl-N-methyl-1-(3-nitrophenyl)methanesulphonamide]
chromatographic logP [2]: 2.05
